Results from patent US6653135B1, “Dynamic protein signature assay” (University of Maryland, priority 2000, dated 2003).

Columns and labels:
[1] = test system: Mytilus edulis; assay: Protein expression signature by 2D electrophoresis of whole body homogenate after 7 day exposure
Procedure: Protein expression signatures, including those proteins induced and those proteins suppressed by exposure, were isolated for each treatment group.
Eight blue mussels Mytilus edulis 2-3 cm in size were collected from a natural population 3M deep. Ambient salinity and temperature were a salinity of 6.3 ppt and a temperature of 7° C. The mussels were put in tanks for acclimation for 24 hours at the same temperature and salinity as collection. […] Water was changed every other day and continuously aerated. At the end of the 7 day exposure, mussels were removed from the shell and flash frozen in liquid nitrogen before being freeze dried for later analysis.
Freeze dried whole body tissue was mechanically homogenized in cold buffer containing phenyl-methylsulfonyl fluoride and dithiothreotol (PMSF and DTT, protease inhibitors) and tris buffer pH 5.5. After mechanical homogenization, samples were boiled to further break down cells, and cellular debris was removed by centrifugation (13000×g for 5 min). Total protein concentration was determined using methods based on the Bradford method (Biorad).
The supernatant containing the soluble protein fraction was separated using two dimensional electrophoresis (Biorad Miniprotean II™). […] Gels from each treatment were compared for changes in pattern and key components using Medical Electrophoresis Analysis Interactive Expert System (MELANIE II™) 2D analysis software (Biorad) and data compiled using a database developed by this laboratory. Composite gels were produced from each treatment set and compared to one another. Proteins uniquely present (induced (expressed)) or absent (suppressed) in each treatment were identified. Those present or absent in all the original component gels were included in the protein expression signature (PES) for each treatment.

[2] = test system: Mytilus edulis gill tissue; assay: Protein expression changes in gill tissue by 2D electrophoresis after 24 h exposure
Procedure: Gill tissue previously flash frozen in liquid nitrogen was mechanically homogenized in cold buffer containing phenyl-methylsulfonyl fluoride and dithiothreotol (PMSF and DTT, protease inhibitors). Cellular debris was removed by centrifugation (13000×g for 5 min). Total protein concentration of the supernatant containing the soluble protein fraction was determined using the Bradford method.
Spots on each gel were detected and compared using Medical Electrophoresis Analysis Interactive Expert System (MELANIE II™) 2D analysis software (Biorad). […] Those spots detectable on the treatment composites only were considered present. Each spot of interest, present or absent, on the treatment composites was identified on all original gels from a treatment group before being considered part of the protein expression signature.

[3] = 7 days exposure, 70 ppb copper, 1 ppb Aroclor 1248, whole body
[4] = signature proteins also found with 70 ppb copper combined with lowered salinity (3 ppt), 7 days
[5] = 20, 40, 60, 80 ppb CuSO4, 24 hrs

| SMILES | Proteins of the signature identified in organisms treated with copper and lowered salinity simultaneously ([1]; 70 ppb copper plus salinity 3 ppt, 7 days) | Protein expression signature (induced and suppressed), number of proteins ([1]; 7 days exposure, 70 ppb copper, 1 ppb Aroclor 1248) | Unique Induction: number of proteins specifically induced (present) [1, 3] | Unique Suppression: number of proteins specifically suppressed (absent) [1, 3] | Copper/Salinity shared signal, induced proteins [1, 4] | Copper/Salinity shared signal, suppressed proteins [1, 4] | Protein spots absent at all treatment levels compared to controls [2, 5] | Protein spots present at all treatment levels compared to controls [2, 5] | Key Protein Changes (number of key proteins present and absent specifically) ([2]; 20 ppb CuSO4, 24 hrs, gill tissue) | Number of proteins specifically absent at a single dosage level ([2]; 20 ppb, 24 hrs) | Key Protein Changes (number of key proteins present and absent specifically) ([2]; 40 ppb CuSO4, 24 hrs, gill tissue) | Key Protein Changes (number of key proteins present and absent specifically) ([2]; 60 ppb CuSO4, 24 hrs, gill tissue) | Key Protein Changes (number of key proteins present and absent specifically) ([2]; 80 ppb CuSO4, 24 hrs, gill tissue) | Number of proteins specifically absent at a single dosage level ([2]; 80 ppb, 24 hrs) | Key Protein Changes (number of key proteins present and absent) ([2]; All Dosages (20, 40, 60, 80 ppb CuSO4), 24 hrs, gill tissue) |
| --- | --- | --- | --- | --- | --- | --- | --- | --- | --- | --- | --- | --- | --- | --- | --- |
| [Cu] [Copper, copper] | Five | 23 proteins | 13 proteins | 10 proteins | 3 proteins | 2 proteins | – | – | – | – | – | – | – | – | – |
| O=S(=O)([O-])[O-].[Cu+2] [CuSO4, copper sulfate] | – | – | – | – | – | – | 2 spots | 11 protein spots | 27 | 14 protein spots | 14 | 19 | 10 | 6 protein spots | 13 |
